The values that follow come from article PMC8876511, “Two out of Three Musketeers Fight against Cancer: Synthesis, Physicochemical, and Biological Properties of Phosphino Cu^I, Ru^II, Ir^III Complexes” (Pharmaceuticals, 2022).

What all share (assay type): cell-based, human
Test [1] has as its system HaCaT cells. Description: MTT cytotoxicity assay, HaCaT (non-cancer). As for the experimental part:
Moreover, to investigate the activity of synthesized complexes as potential anticancer agents, their cytotoxicity toward a series of human cancer cell lines and a non-cancer cell line (HaCaT) was evaluated using the MTT assay. […] In addition, we also determined the cytotoxic activity of free ligands toward selected cancer cells. […] However, this effect depends on the cell line. […] The best values of cytotoxic activity of compounds have been obtained after 72 h of cell incubation. Additionally, synthesized complexes had high sensitivity to A549 cells, so this cell line was selected as the research subject for antitumor activity.
MCF7 cell line (human breast adenocarcinoma, morphology: epithelial-like, ATCC: HTB-22) and A549 cell line (human lung adenocarcinoma, morphology: epithelial, ATCC: CCL-185); HaCaT (human keratinocyte) were cultured in Dulbecco’s Modified Eagle’s Medium (DMEM, Corning, Poland) with phenol red, supplemented with 10% fetal bovine serum (FBS) and with 1% streptomycin/penicillin. Du-145 cell line (human prostate carcinoma); derived from metastatic site: brain was cultured in minimum essential medium (MEM, Corning) with only 10% fetal bovine serum (FBS). Cultures were incubated at 37 °C under a humidified atmosphere containing 5% CO2. Cells were passaged using a solution containing 0.05% trypsin and 0.5 mM EDTA. All media and other ingredients were purchased from ALAB, Poland.
Since most of the studied compounds are insoluble in aqueous media (Dulbecco’s Modified Eagle’s Medium or minimum essential medium (MEM, Corning), therefore, they needed to be pre-dissolved in DMSO for biological tests. DMSO concentration was kept below 1% in each tested concentration of each compound. Cytotoxicity was assessed by MTT assay performed according to the protocols described previously in the following experimental approaches: 6 h + 24 h, 24 h + 24 h, and 72 h + 24 h. In brief, 5×10^3 per well (0.2 mL) in the two first approaches, while 1×10^4 cells in the case of longer incubation time were seeded in 96-well flat-bottom microtiter plate, were incubated with the tested complexes at various ranges of concentrations. After an appropriate incubation time of 6, 24, or 72 h, the cells were washed thee time with PBS and fresh medium was applied for a further 24 h in each approach. Various compound concentrations (dilutions in proper medium supplemented with 1% FBS) were tested in five replicates and repeated at least three times. Determined values of IC50 (concentration of a drug required to inhibit the growth of 50% of the cells) are given as mean + S.D. (Standard Deviation). IC50 values were determined, from the plots of cell viability in the presence of various concentrations of each compound by matching dose–response curves and using the Origin 9.0 software. Furthermore, post-treatment survival assessment of the treated cells was analyzed under an inverted fluorescence microscope (Olympus IC51, Japan) with an excitation filter 470/20 nm. For this, cells were stained with two versatile fluorescence dyes: fluorescein diacetate (FDA, 5 mg/mL) and propidium iodide (PI, 5 mg/mL) in standard conditions in the dark for 20 min. Before visualization, dyes were removed and cells were washed with PBS twice.

The subject of test [2] is A549 cells. Description: Intracellular accumulation, fluorescence microscopy. The settings on record: A549, 5 μM, 24 h. As for the experimental part: It has been reported that the cellular uptake efficacy of a compound is affected by many factors, such as lipophilicity. Synthesized complexes indicate blue fluorescence. Thus, their detection using fluorescence microscopy is possible. For this purpose, A549 (human lung adenocarcinoma epithelial) cells were incubated with Ir(III) complexes (5 μM) for 24 h and analyzed. Phalloidin was co-incubated with Ir(III) complexes to determine subcellular localization further.
The intracellular accumulation of the compound was assessed in the A549 cell line. Before imaging, cells were seeded on microscopic slides at a density of 1×10^5 cells and were kept at 37 °C with 5% CO2 humidified atmosphere for 24 h. After being washed with fresh medium, the cells were incubated with 5 μM solution of tested compound in cell medium for 24 h. Next, after being washed with HBSS, the cells were fixed for 10 min in 3.8% PFA and incubated with specific intracellular organelle probes: 200 nM Mito-Tracker green, 1 μg/mL Quinacrine, and 0.25 nM of PhalloidinAtto 488 (Molecular Probes, Invitrogen Life Technologies; Thermo Fisher Scientific, Waltham, MA, USA), diluted in HBSS buffer. After 30 min incubation, at 37 °C, in the dark, the cells were washed with HBSS two times, and the slide was transferred to the microscope stage and cells were visualized under a fluorescent Zeiss Axio Observer microscope. Registered images were analyzed with the Zeiss ZEN software.

The test system of test [3] is A549 cells. Description: Cell cycle analysis by PI staining, flow cytometry. The settings on record: synchronized A549, various concentrations, 24 h. As for the experimental part: Antitumor drugs induce cell cycle arrest by inhibiting DNA synthesis and enhancing DNA damage, ultimately leading cancer cells to apoptosis. We further studied the influence of Ir(III) and Ru(II) complexes on cell cycle distribution. Synchronized A549 cells were treated with Ir(III) (1a, 2a) or Ru(II) (1b, 2b) at various concentrations for 24 h. Cells were stained with propidium iodide (PI) and analyzed by flow cytometry. […] An arrest in S-phase implies that the cell cannot duplicate its DNA. Other authors recently reported a similar effect for iridium(III)polypyridyl complexes. Moreover, the percentage of the G2/M population also increases. However, higher doses (>10 μM) of Ir(III) complexes can enhance G0/G1-phase arrest.
The serum starvation protocol was used to synchronize cell cultures. A549 cells were seeded in a 12-well plate in a growth medium with 20% FBS overnight. Then, the cultures were washed by PBS and changed to a serum-free medium. After serum starvation for 24 h, cells were released into the cell cycle by the addition of serum and tested compounds solution for 24 h. The cells were then detached from the plate using trypsin. […] Cells were analyzed with the Guava® easyCyte™ flow cytometer equipped with a 488 nm laser. The obtained data were analyzed using InCyte Software (MerckMillipore, Burlington, MA, USA).

The next test concerns PANC-1 cells. Description: MTT cytotoxicity assay, PANC-1. The following applies: 48 h.
For test [4], the system named is HaCaT cells. Description: MTT cytotoxicity assay, HaCaT (non-cancer). The settings on record: 48 h.

In the case of `CCN(CC)C[P+](c1ccccc1)(c1ccccc1)[Ir-3]([Cl])([Cl])[C]1(C)C(C)=C(C)C(C)=C1C` [1a, Ir(η^5-Cp*)Cl2Ph2PCH2N(CH2CH3)2], the IC50 was 456 ± 11 µM with HaCaT cells [1] (24 h), 320 ± 19 µM in the test on HaCaT cells [1] (72 h), 204 ± 29 µM in the test on PANC-1 cells and 446 ± 26 µM in the test with HaCaT cells [4]. For the same compound, the penetration into cells entry in the test with A549 cells [2] was “can penetrate A549 cells”. Besides, the subcellular localization result in the test with A549 cells [2] is recorded as “signal in whole (retain within the cytoplasm) cells with relative higher intensity in the nuclei”. Besides, in the test with A549 cells [3], the cell cycle perturbations result is “concentration-dependent cell cycle perturbations”.

Take “Ru(η^6-p-cymene)Cl2Ph2PCH2N(CH2CH3)2 [1b]”: the IC50 was 446 ± 20 µM with HaCaT cells [1] (24 h), 303 ± 20 µM in the test with HaCaT cells [1] (72 h), 305 ± 13 µM in the test with PANC-1 cells and 545 ± 33 µM in the test with HaCaT cells [4]. Moreover, the penetration into cells entry in the test with A549 cells [2] is given as “can penetrate A549 cells”. The subcellular localization result in the test with A549 cells [2] is recorded as “localize mainly in nuclei”. The cell cycle perturbations entry with A549 cells [3] is on record as “concentration-dependent cell cycle perturbations”.
